For one assay, the target named is T1, Recombinant IKKβ (Homo sapiens, UniProt O14920).
T1 construct: purchased Millipore, Dundee, UK
T1 sequence (O14920 1-756): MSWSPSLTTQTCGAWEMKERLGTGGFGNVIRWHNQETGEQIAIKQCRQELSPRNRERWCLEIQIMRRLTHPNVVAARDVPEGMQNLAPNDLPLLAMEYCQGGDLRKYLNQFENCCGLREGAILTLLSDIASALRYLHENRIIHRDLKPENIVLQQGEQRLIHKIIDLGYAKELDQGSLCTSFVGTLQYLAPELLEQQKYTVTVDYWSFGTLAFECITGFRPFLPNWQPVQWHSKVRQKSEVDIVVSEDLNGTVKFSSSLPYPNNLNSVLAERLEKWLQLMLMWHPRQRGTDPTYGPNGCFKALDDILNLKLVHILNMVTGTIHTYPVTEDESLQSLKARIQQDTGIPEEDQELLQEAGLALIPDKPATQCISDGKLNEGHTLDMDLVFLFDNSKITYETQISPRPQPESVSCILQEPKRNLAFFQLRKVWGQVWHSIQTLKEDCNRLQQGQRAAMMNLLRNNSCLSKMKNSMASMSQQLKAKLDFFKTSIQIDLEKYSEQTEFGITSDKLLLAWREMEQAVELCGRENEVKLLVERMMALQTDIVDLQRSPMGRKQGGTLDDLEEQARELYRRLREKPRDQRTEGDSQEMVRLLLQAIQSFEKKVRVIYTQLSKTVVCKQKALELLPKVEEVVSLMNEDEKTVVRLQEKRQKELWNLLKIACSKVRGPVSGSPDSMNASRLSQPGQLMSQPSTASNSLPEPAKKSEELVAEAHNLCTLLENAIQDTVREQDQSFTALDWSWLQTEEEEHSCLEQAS
The experiment in a line: DELFIA IKKβ kinase assay (apparent Ki, Cheng-Prusoff). It counts as biochemical. Particulars: DELFIA assay (first line of an example). Summed up: (§1)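 Recombinant IKKα or IKKβ (37 nM) with 0.375 μM biotinylated IκB-α (Ser32) peptide and 40 μM ATP in 40 mM Tris-HCl pH 7.5, 20 mM MgCl2, 60 min at 30° C. Phospho-substrate captured on streptavidin and detected by anti-phospho-IκB-α plus europium anti-mouse IgG time-resolved fluorescence; apparent Ki via Cheng-Prusoff.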

A further assay concerns the target T2, Recombinant IKKα (Homo sapiens, UniProt O15111).
T2 construct: purchased Millipore, Dundee, UK
T2 sequence (O15111 1-745): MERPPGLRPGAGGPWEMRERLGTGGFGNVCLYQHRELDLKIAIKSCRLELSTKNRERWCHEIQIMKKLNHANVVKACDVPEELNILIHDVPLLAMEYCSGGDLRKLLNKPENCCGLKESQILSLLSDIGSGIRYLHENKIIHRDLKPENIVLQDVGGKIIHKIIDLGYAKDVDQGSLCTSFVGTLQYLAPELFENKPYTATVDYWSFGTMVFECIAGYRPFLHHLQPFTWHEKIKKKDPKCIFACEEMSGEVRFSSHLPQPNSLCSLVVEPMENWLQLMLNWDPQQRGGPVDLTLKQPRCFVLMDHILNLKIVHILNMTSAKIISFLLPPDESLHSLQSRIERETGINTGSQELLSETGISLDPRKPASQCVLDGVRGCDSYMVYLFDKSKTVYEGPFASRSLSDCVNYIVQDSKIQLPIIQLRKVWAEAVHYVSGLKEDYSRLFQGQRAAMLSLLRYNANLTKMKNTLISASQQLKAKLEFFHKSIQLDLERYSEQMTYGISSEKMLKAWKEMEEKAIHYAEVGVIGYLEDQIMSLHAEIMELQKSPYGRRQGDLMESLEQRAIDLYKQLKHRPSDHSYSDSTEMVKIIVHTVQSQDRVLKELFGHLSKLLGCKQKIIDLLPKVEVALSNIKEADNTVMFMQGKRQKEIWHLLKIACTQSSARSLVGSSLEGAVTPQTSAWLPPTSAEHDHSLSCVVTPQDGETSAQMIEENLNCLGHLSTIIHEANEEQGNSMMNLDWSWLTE
Put plainly: DELFIA IKKα kinase assay (apparent Ki, Cheng-Prusoff). It counts as biochemical. Particulars: DELFIA assay (first line of an example). An outline of the steps: as §1

In the case of `Nc1n[nH]c2c(C#CCCCN3CCCCC3)cc(-c3ccnc4[nH]ccc34)cc12` [Example 212, 7-(5-(Piperidin-1-yl)pent-1-yn-1-yl)-5-(1H-pyrrolo[2,3-b]pyridin-4-yl)-1H-indazol-3-amine], the figures for the Ki on Recombinant IKKβ and on Recombinant IKKα were 2370 nM and 30 nM, respectively.
Regarding `Nc1n[nH]c2ccc(-c3ccnc4[nH]c(C5CC5)cc34)cc12` [Example 218, 5-(2-Cyclopropyl-1H-pyrrolo[2,3-b]pyridin-4-yl)-1H-indazol-3-amine], the results for the Ki at Recombinant IKKβ and at Recombinant IKKα were 63 nM and 5 nM, respectively.
Take `Nc1n[nH]c2ccc(-c3ccnc4[nH]c(C5CCCCC5)cc34)cc12` [Example 219, 5-(2-Cyclohexyl-1H-pyrrolo[2,3-b]pyridin-4-yl)-1H-indazol-3-amine]: the results for the Ki on Recombinant IKKβ and at Recombinant IKKα were 461 nM and 42 nM, respectively.
Turning to `CC(C)(C)Cc1cc2c(-c3ccc4[nH]nc(N)c4c3)ccnc2[nH]1` [Example 220, 5-(2-Neopentyl-1H-pyrrolo[2,3-b]pyridin-4-yl)-1H-indazol-3-amine], the Ki at Recombinant IKKβ was 838 nM; on Recombinant IKKα, 58 nM.
The matching figures for `Nc1n[nH]c2ccc(-c3ccnc4[nH]c(CC5CCCCC5)cc34)cc12` [Example 221, 5-(2-(Cyclohexylmethyl)-1H-pyrrolo[2,3-b]pyridin-4-yl)-1H-indazol-3-amine]: 461 nM and 38 nM.
As for `Nc1n[nH]c2ccc(-c3ccnc4[nH]c(CCC5CCCCC5)cc34)cc12` [Example 222, 5-(2-(2-Cyclohexylethyl)-1H-pyrrolo[2,3-b]pyridin-4-yl)-1H-indazol-3-amine], the Ki on Recombinant IKKβ was 134 nM; at Recombinant IKKα, 19 nM.
Take `Nc1n[nH]c2ccc(-c3ccnc4[nH]c(CO)cc34)cc12` [Example 224]: the Ki at Recombinant IKKβ was determined as 503 nM; on Recombinant IKKα it was 5 nM.
On to `CC(C)(C)OCc1cc2c(-c3ccc4[nH]nc(N)c4c3)ccnc2[nH]1` [Example 227, 5-(2-(tert-Butoxymethyl)-1H-pyrrolo[2,3-b]pyridin-4-yl)-1H-indazol-3-amine], for which the values for the Ki at Recombinant IKKβ and at Recombinant IKKα were 754 nM and 29 nM, respectively.
In the case of `Nc1n[nH]c2ccc(-c3ccnc4[nH]c(C5CCOCC5)cc34)cc12` [Example 228, 5-(2-(tetrahydro-2H-pyran-4-yl)-1H-pyrrolo[2,3-b]pyridin-4-yl)-1H-indazol-3-amine], the results for the Ki at Recombinant IKKβ and on Recombinant IKKα were 97 nM and 12 nM, respectively.
In the case of `Nc1n[nH]c2ccc(-c3ccnc4[nH]c(C5CCCCO5)cc34)cc12` (stereo not shown) [Example 229, 5-(2-(Tetrahydro-2H-pyran-2-yl)-1H-pyrrolo[2,3-b]pyridin-4-yl)-1H-indazol-3-amine], the Ki amounted to 272 nM on Recombinant IKKβ and 27 nM on Recombinant IKKα.
For `Nc1n[nH]c2ccc(-c3ccnc4[nH]c(CC5CCOCC5)cc34)cc12` [Example 230, 5-(2-((tetrahydro-2H-pyran-4-yl)methyl)-1H-pyrrolo[2,3-b]pyridin-4-yl)-1H-indazol-3-amine], the Ki stood at 260 nM on Recombinant IKKβ and 11 nM on Recombinant IKKα.
Consider `Nc1n[nH]c2ccc(-c3ccnc4[nH]c(C(=O)N5CCCC5)cc34)cc12` [Example 234, (4-(3-Amino-1H-indazol-5-yl)-1H-pyrrolo[2,3-b]pyridin-2-yl)(pyrrolidin-1-yl)methanone], for which the Ki on Recombinant IKKβ turned out to be 272 nM; on Recombinant IKKα, 19 nM.
The matching figures for `Nc1n[nH]c2ccc(-c3ccnc4[nH]c(C(=O)NC5CCCCC5)cc34)cc12` [Example 236, 4-(3-Amino-1H-indazol-5-yl)-N-cyclohexyl-1H-pyrrolo[2,3-b]pyridine-2-carboxamide]: 79 nM and 10 nM.
For `CN1CCN(C(=O)c2cc3c(-c4ccc5[nH]nc(N)c5c4)ccnc3[nH]2)CC1` [Example 243, (4-(3-Amino-1H-indazol-5-yl)-1H-pyrrolo[2,3-b]pyridin-2-yl)(4-methylpiperazin-1-yl)methanone], the Ki on Recombinant IKKβ was 1030 nM; on Recombinant IKKα, 72 nM.
The matching figures for `CC(C)(C)NCc1cc2c(-c3ccc4[nH]nc(N)c4c3)ccnc2[nH]1` [Example 248, 5-(2-((tert-Butylamino)methyl)-1H-pyrrolo[2,3-b]pyridine-4-yl)-1H-indazol-3-amine]: 4020 nM and 202 nM.
For the compound `Nc1n[nH]c2ccc(-c3ccnc4[nH]c(C5CCCCN5)cc34)cc12` (stereo not shown) [Example 250, 5-(2-(Piperidin-2-yl)-1H-pyrrolo[2,3-b]pyridine-4-yl)-1H-indazol-3-amine], the Ki at Recombinant IKKβ was > 10000 nM; on Recombinant IKKα it was 380 nM.
Turning to `Nc1n[nH]c2ccc(-c3ccnc4[nH]c(CNC5CCCCC5)cc34)cc12` [Example 251, 5-(2-((cyclohexylamino)methyl)-1H-pyrrolo[2,3-b]339yridine-4-yl)-1H-indazol-3-amine], the Ki on Recombinant IKKβ turned out to be 1300 nM; on Recombinant IKKα, 74 nM.
`CN(C)CCCNCc1cc2c(-c3ccc4[nH]nc(N)c4c3)ccnc2[nH]1` [Example 258, N^1-((4-(3-amino-1H-indazol-5-yl)-1H-pyrrolo[2,3-b]pyridin-2-yl)methyl)-N^3,N^3-dimethylpropane-1,3-diamine]: the Ki was 1130 nM on Recombinant IKKβ and 16 nM on Recombinant IKKα.
On to `CC(C)N(C)Cc1cc2c(-c3ccc4[nH]nc(N)c4c3)ccnc2[nH]1` [Example 259, 5-(2-((Isopropyl(methyl)amino)methyl)-1H-pyrrolo[2,3-b]pyridine-4-yl)-1H-indazol-3-amine], for which the Ki at Recombinant IKKβ was found to be 2140 nM; on Recombinant IKKα, 110 nM.
For `Nc1n[nH]c2ccc(-c3ccnc4[nH]c(CN5CCCCC5)cc34)cc12` [Example 260, 5-(2-(Piperidin-1-ylmethyl)-1H-pyrrolo[2,3-b]pyridine-4-yl)-1H-indazol-3-amine] the same measures were 1720 nM and 91 nM.
For the compound `Nc1n[nH]c2ccc(-c3ccnc4[nH]c(CN5CCC(F)(F)CC5)cc34)cc12` [Example 261, 5-(2-((4,4-Difluoropiperidin-1-yl)methyl)-1H-pyrrolo[2,3-b]pyridine-4-yl)-1H-indazol-3-amine], the Ki was 2390 nM at Recombinant IKKβ and 49 nM at Recombinant IKKα.
Turning to `Nc1n[nH]c2ccc(-c3ccnc4[nH]c(CN5CCOCC5)cc34)cc12` [Example 262, 5-(2-(Morpholinomethyl)-1H-pyrrolo[2,3-b]pyridine-4-yl)-1H-indazol-3-amine], the Ki stood at 277 nM at Recombinant IKKβ and 22 nM at Recombinant IKKα.
As to `CN1CCN(Cc2cc3c(-c4ccc5[nH]nc(N)c5c4)ccnc3[nH]2)CC1` [Example 263, 5-(2-((4-Methylpiperazin-1-yl)methyl)-1H-pyrrolo[2,3-b]pyridine-4-yl)-1H-indazol-3-amine], the Ki came to 2430 nM on Recombinant IKKβ and 62 nM at Recombinant IKKα.
For `Nc1n[nH]c2ccc(-c3ccnc4[nH]c(CN5CCCCCC5)cc34)cc12` [Example 265, 5-(2-(Azepan-1-ylmethyl)-1H-pyrrolo[2,3-b]pyridine-4-yl)-1H-indazol-3-amine], the Ki was found to be 2510 nM at Recombinant IKKβ and 91 nM on Recombinant IKKα.
Consider `CN1CCCN(Cc2cc3c(-c4ccc5[nH]nc(N)c5c4)ccnc3[nH]2)CC1` [Example 266, 5-(2-((4-Methyl-1,4-diazepan-1-yl)methyl)-1H-pyrrolo[2,3-b]pyridin-4-yl)-1H-indazol-3-amine], for which the Ki at Recombinant IKKβ came out at 1800 nM; at Recombinant IKKα, 46 nM.
For the compound `Nc1n[nH]c2ccc(-c3ccnc4[nH]c(CCN5CCCCC5)cc34)cc12` [Example 267, 5-(2-(2-(Piperidin-1-yl)ethyl)-1H-pyrrolo[2,3-b]pyridine-4-yl)-1H-indazol-3-amine], the Ki on Recombinant IKKβ amounted to 1380 nM; on Recombinant IKKα it was 53 nM.

For the origin of these results see US20250304576A1 (Cancer Research Technology Limited, priority 2022, published 2025).
